In patent publication US20170142962A1, “METHODS AND SOLUTIONS INCLUDING ADDITIVES AND STABILIZERS FOR KILLING OR DEACTIVATING SPORES” (EP Technologies LLC, priority 2015, published 2017):
Structures can show the parent of a compound that is named as a salt.

Experiments:
[1] = test system: C. diff spores; test: Example 11: plasma activated wipes used to wipe spore-containing surface; assay type: cell-based, Clostridium difficile; details: mechanical removal
Experimental: (§1) In the following examples, various treatments were applied to measure the ability of plasma-activated liquids containing various additives to kill or deactivate spores from C. diff bacteria. Briefly, a volume of 10 μl of C. diff spores in sterile water (containing approximately 10^8 colony forming units (CFUs)/ml) was added onto a sterile stainless steel disc and left to dry for 30 minutes. The contaminated surfaces were then exposed to a treatment described below. After treatment, the killing or deactivation capacity of the treatment was measured by estimating the number of surviving CFUs. Estimation of surviving CFUs was determined by placing the disc in test tubes filled with a neutralizer. The test tubes were sonicated for 1 minute and vortexed for 15 seconds to fully remove spores from the surfaces. The neutralizer solution containing spores was diluted and plated on Brain Heart Infusion Agar supplemented with 0.1% Sodium Taurocholate (BHIT). The agar plates were incubated under anaerobic conditions for 36-48 hours at 37° C. CFUs were estimated based on colony counts on the agar plates following incubation.

[2] = test system: C. diff spores; test: Example 2: direct DBD plasma treatment of differing EtOH concentrations on spore-containing discs with soil; assay type: cell-based, Clostridium difficile; details: 12 μl, DBD 30 seconds
Experimental: as §1, with “incubation. A direct plasma treatment (as shown in FIG. 1) with DBD was used for the testing. […] The gap distance between the plasma reactor and the disc was 2 mm.” for “incubation.”

[3] = test system: C. diff spores; test: Example 1: direct DBD plasma treatment of EtOH, H2O2 or water solutions on spore-containing discs with soil; assay type: cell-based, Clostridium difficile; details: DBD 30 seconds, 35% EtOH, 70% EtOH, 3% H2O2
Experimental: as §1, with “incubation. A direct plasma treatment (as shown in FIG. 1) with DBD was used for the testing. The direct DBD was created by an AC sinusoidal voltage power supply with a power scale at 15 (approximately 20 kV peak-to-peak) and a driving frequency of 20.5 kHz. […]” for “incubation.”

[4] = test system: C. diff spores; test: Example 3: direct DBD plasma treatment of H2O2 or NaNO2 solutions, spore inoculum in PBST; assay type: cell-based, Clostridium difficile; details: 1, 10, 100, 500 mM, 10 μl, DBD 20 seconds, two trials, NaNO2: other than at 10 mM
Experimental: as §1
A direct plasma treatment (as shown in FIG. 1) with DBD was used for the testing. […]

[5] = cited from earlier work
[6] = test system: C. diff spores; test: Example 4: direct DBD plasma treatment of acid solutions, spore inoculum in PBST with soil; assay type: cell-based, Clostridium difficile; details: 0.0001% to 10% acid solutions, 3 μl, DBD 20 seconds
Experimental: as §1
A direct plasma treatment (as shown in FIG. 1) with DBD was used for the testing. The direct DBD was created by a microsecond pulsed power supply which creates discrete voltage bursts at a repetition rate of 3.5 kHz which consist of decaying sinusoidal waveforms with a frequency of 32 kHz and a peak-to-peak voltage of approximately 20 kV. The gap distance between the plasma reactor and the disc was 2 mm. Spore inoculum for the stainless steel disc was prepared in 1×PBST with soil instead of sterile water. Citric acid, acetic acid, or HCl was added to water to produce 0.0001% to 10% acid solutions. 3 μl of each of these solutions was added to the spore-containing discs. After application, the discs were subjected to DBD treatment for 20 seconds.

[7] = cited from earlier work; remark: listed apart in the source

CCO [EtOH, ethanol]
LR of wipe without plasma activation [1]: ~0.7 LR
killing or deactivation efficiency with increased concentration [2]: increasing killing or deactivation efficiency
kill or deactivation efficiency as additive in the water, versus water alone [3]: substantially increased the kill or deactivation efficiency

OO [H2O2, hydrogen peroxide]
effect of increasing the concentration on killing or deactivation efficiency [4]: increased the killing or deactivation efficiency
OSHA permissible exposure limit ([5]; averaged over an 8-hour work shift): 1 ppm
AIHA ERPG-2 maximum airborne concentration ([5]; exposure up to an hour without irreversible or serious health effects): 50 ppm
kill or deactivation efficiency as additive in the water, versus water alone [3]: substantially increased the kill or deactivation efficiency

Cl [HCl, hydrochloric acid]
killing or deactivation efficiency relative to water alone [6]: increased the killing or deactivation efficiency

O=NO [NaNO2, sodium nitrite]
effect of increasing the concentration on killing or deactivation efficiency [4]: did not increase the killing or deactivation efficiency

CC(=O)O [acetic acid]
killing or deactivation efficiency relative to water alone [6]: increased the killing or deactivation efficiency

O=C(O)CC(O)(CC(=O)O)C(=O)O [citric acid]
killing or deactivation efficiency relative to water alone [6]: increased the killing or deactivation efficiency

O=NOO [peroxynitrite]
half-life [7]: around 1 second
